From patent EP0241573A1, “Topical agents for inhibiting the melanin generation” (Sansho Seiyaku Co., Ltd., priority 1986, dated 1987)

Key:
[1] = biological target: T1, tyrosinase from a B16 cell homogenate (Mus musculus, UniProt P11344); assay: B16 cell-derived tyrosinase activity inhibition (absorbance increase at 475 nm); format: biochemical; conditions: aqueous solutions 0.1, 0.05 and 0.03 µl/ml; 10 mM dopa, pH 6.8, 37°C, 0.15 minutes
T1 construct: 0.1 ml of a 11000 G supernatant of a B16 cell homogenate; endogenous in cells; host or cells: B16 mouse melanoma cells (11000 G supernatant of homogenate)
T1 sequence (P11344 19-533): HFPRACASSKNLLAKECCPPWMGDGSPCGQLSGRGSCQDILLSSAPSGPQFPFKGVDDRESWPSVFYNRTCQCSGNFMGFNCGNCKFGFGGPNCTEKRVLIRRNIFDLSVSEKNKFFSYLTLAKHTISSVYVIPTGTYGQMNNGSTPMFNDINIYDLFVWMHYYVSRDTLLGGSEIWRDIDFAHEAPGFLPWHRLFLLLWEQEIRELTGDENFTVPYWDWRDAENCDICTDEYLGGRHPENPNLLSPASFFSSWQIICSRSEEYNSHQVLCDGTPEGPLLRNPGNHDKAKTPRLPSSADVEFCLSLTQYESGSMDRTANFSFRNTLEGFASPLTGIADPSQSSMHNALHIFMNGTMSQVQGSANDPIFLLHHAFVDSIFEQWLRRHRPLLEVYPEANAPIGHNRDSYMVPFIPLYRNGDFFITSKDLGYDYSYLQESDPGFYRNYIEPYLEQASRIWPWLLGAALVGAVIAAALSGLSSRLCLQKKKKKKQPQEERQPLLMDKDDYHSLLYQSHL
Method: Fig. 2 is a figure showing the test results of the tyrosinase activity inhibition by vitamin E solutions on tyrosinase from a B16 cell homogenate. In the figure, -▲-, -●- ,-x- and -o- have the same significance as in Fig. 1.
b. Test on the B16 cell-derived tyrosinase Activity Inhibition
Samples were prepared respectively by adding 1.0 ml of aqueous solutions containing vitamin E at concentrations of 0.1 µl/ml, 0.05 µl/ml and 0.03 µl/ml prepared in the production examples described hereinbelow to 0.1 ml of a 11000 G supernatant of a B16 cell homogenate, 1.0 ml of a 10 mM dopa and 0.9 ml of a 0.1 M phosphate buffer (pH 6.8), also a solution containing no vitamin E was prepared as a control, and the increase in absorbance at 475 nm at 37°C for […] was measured.

[2] = according to WHO; cited from earlier work
mashroom tyrosinase = assay: Mushroom-derived tyrosinase activity inhibition (absorbance increase at 475 nm); format: biochemical; conditions: aqueous solutions 0.1, 0.05 and 0.03 µl/ml; tyrosine substrate, pH 6.8, 37°C, 0-15 minutes
Method: Fig. 1 is a figure showing the test results of the tyrosinase activity inhibition by vitamin E solutions on mashroom tyrosinase. In the figure, -▲- stands for the absorbance at 475 nm of an aqueous solution of a concentration of vitamin E of 0.1 µl/ml, -●- for an aqueous solution of concentration of vitamin E of 0.05 µl/ml, -x- for an aqueous solution of a concentration of vitamin E of 0.03 µl/ml and -o- for an aqueous solution containing no vitamin E (control).
a. Test on the Mashroom-derived Tyrosinase Activity Inhibition
Samples were prepared by adding 1.0 ml of aqueous solutions containing vitamin E at concentrations of 0.1 µl/ml, 0.05 µl/ml and 0.03 µl/ml respectively to 1.0 ml of a tyrosine solution (0.3 mg/ml), 0.9 ml of a 0.1 M phosphate buffer (pH 6.8) and 0.1 ml of mashroom tyrosinase (400 U/ml), also a solution containing no vitamin E was prepared as a control, and the increase in absorbance at 475 nm at 37°C for 0-15 minutes was measured.

[3] = tested on: B16 cells derived from the mouse melanoma; assay: Test on B16 cultured cells derived from mouse melanoma: degree of melanin generation (blackening/whitening) observed by the naked eye; format: cell-based; set-up: key: -: Not whitened at all; +: Slightly whitened; +: Considerably whitened; ++: Whitening clearly descernible; +++: Whitening proceeded to such degree that blackening cannot be observed; conditions: culture 5 days at 37°C
Method: I. Test on B16 Cultured Cells Derived from Mouse Melanoma (Testing Method)
Aqueous solution of vitamin E was added 30 µg/ml, 20 µg/ml, 10 µg/ml and 2 µg/ml respectively in final concentration to the culture medium for B16 cells derived from the mouse melanoma. After culture period for 5 days at 37°C, the degree of melanin generation (degree of blackening) was observed by the naked eyes.

Substance: vitamin E
- effect to inhibit the B16 cell tyrosinase [1]: not observed
- acute toxicity [2]: no acute toxicity
- effect to inhibit the mashroom tyrosinase (mashroom tyrosinase): not observed
- Degree of Whitening ([3]; 10 µg/ml final concentration): +
- Degree of Whitening ([3]; 20 µg/ml final concentration): ++
- Degree of Whitening ([3]; 30 µg/ml final concentration): +++
